Source: the supplement of paper PMC6965134
± gives the standard deviation of the averaged measurements.

Assay: TIMS collisional cross section (CCS, N2) of the lipid ion; higher = larger ion cross section
Details: ionization mode: positive, one isomer drawn

| Compound | TIMS collisional cross section (sample type: Liver) [Å²] | TIMS collisional cross section (sample type: plasma) [Å²] | TIMS collisional cross section (sample type: HeLa) [Å²] |
| --- | --- | --- | --- |
| CCCCCCC/C=C\CCCCCCCCC(=O)OC[C@H](COP(=O)([O-])OCC[N+](C)(C)C)OC(=O)CCCCCCCC/C=C\CCCCCCC [PC 18:1_18:1] (ion (formula + adduct): [C44H84NO8P+H] 1+) |  |  | 292.9 |
| CCCCCCCCCCCCCCCCCCOC[C@H](COP(=O)([O-])OCC[N+](C)(C)C)OC(=O)CCCCCCCCCCCCCCC [PC O- 18:0@_16:0] (ion (formula + adduct): [C42H86NO7P+H] 1+) |  |  | 293.3 |
| CCCCC/C=C\C[C@H](O)/C=C/C=C\C/C=C\CCCC(=O)O[C@H](COC(=O)CCCCCCCCCCCCCCCCC)COP(=O)([O-])OCC[N+](C)(C)C [Oxidized PC 18:0@_20:4] (ion (formula + adduct): [C46H84NO9P+H] 1+) |  | 297.15 ± 0.92 |  |
| CCCCCCCC/C=C\CCCCCCCC(=O)O[C@H](COC(=O)CCCCCCCCCCCCCCCCC)COP(=O)(O)OCCN [PE 18:0@_18:1] (ion (formula + adduct): [C41H80NO8P+H] 1+) | 282.2 | 282.1 |  |
| CC/C=C\C/C=C\C/C=C\C/C=C\C/C=C\C/C=C\CCC(=O)O[C@H](CO/C=C\CCCCCCCCCCCCCCCC)COP(=O)([O-])OCC[N+](C)(C)C [PC P- 18:0@_22:6] (ion (formula + adduct): [C48H84NO7P+H] 1+) |  |  | 297.1 ± 0.71 |
| CC/C=C\C/C=C\C/C=C\C/C=C\C/C=C\C/C=C\CCC(=O)O[C@@H](CO)COC(=O)CCCCCCC/C=C\CCCCCCCC [DG 18:1_22:6_0:0] (ion (formula + adduct): [C43H70O5+NH4] 1+) | 269.9 |  | 270 |
| CCCCCCCCCCCCCCCCCCCCCC(=O)O[C@@H](CO)COC(=O)CCCCCCCCCCCCCCCCC [DG 18:0_22:0_0:0] (ion (formula + adduct): [C43H84O5+NH4] 1+) |  | 285.7 |  |
| CCCCC/C=C\C[C@H](O)/C=C/C=C\C/C=C\CCCC(=O)O[C@H](COC(=O)CCCCCCCCCCCCCCC)COP(=O)([O-])OCC[N+](C)(C)C [Oxidized PC 16:0@_20:4] (ion (formula + adduct): [C44H80NO9P+H] 1+) |  | 289.9 ± 0.36 |  |
| CCCC/C=C\CCCCCCCCCCOC[C@@H](O)COP(=O)([O-])OCC[N+](C)(C)C [LPC O- 16:1] (ion (formula + adduct): [C24H50NO6P+H] 1+) |  | 224.8 | 225.4 |
| CCCCCCCCCCCCCCCC(=O)OC[C@@H](O)COP(=O)(O)OCCN [LPE 16:0_0:0] (ion (formula + adduct): [C21H44NO7P+H] 1+) |  |  | 217.4 |
| CCCCCCCC/C=C\CCCCCCCC(=O)O[C@H](COC(=O)CCCCCCCCCCCCCCC)COP(=O)(O)OCCN [PE 16:0@_18:1] (ion (formula + adduct): [C39H76NO8P+H] 1+) | 275.7 | 275.3 |  |
| CCCCC/C=C\C/C=C\CCCCCCCC(=O)OC[C@H](CO)OC(=O)CCCCCCC/C=C\C/C=C\CCCCC [DG 18:2_18:2_0:0] (ion (formula + adduct): [C39H68O5+NH4] 1+) | 256.6 | 257.1 |  |
| CCCCCCCC/C=C\CCCCCCCCCCCCCC(=O)N[C@@H](CO[C@@H]1O[C@H](CO)[C@@H](O)C(O)C1O)[C@H](O)/C=C/CCCCCCCCCCCCC (stereo partly drawn) [GlcCer d18:1_24:1@] (ion (formula + adduct): [C48H91NO8+H] 1+) | 302.8 |  |  |
| CC/C=C\C/C=C\C/C=C\C/C=C\C/C=C\CCCC(=O)O[C@H](COC(=O)CCCCCCCCCCCCCCC)COP(=O)([O-])OCC[N+](C)(C)C [PC 16:0@_20:5] (ion (formula + adduct): [C44H78NO8P+H] 1+) |  | 290.6 |  |
| CC(C)CCC[C@@H](C)[C@H]1CC[C@H]2[C@@H]3C(=O)C=C4C=CCC[C@]4(C)[C@H]3CC[C@]12C [3,5-cholestadien-7-one] (ion (formula + adduct): [C27H42O+H] 1+) |  | 203.1 | 203.63 ± 0.75 |
| CCCCCCCC/C=C\C/C=C\CCCCC(=O)O[C@H](COC(=O)CCCCCCC/C=C\CCCCCCCC)COP(=O)([O-])OCC[N+](C)(C)C [PC 18:1_18:2@] (ion (formula + adduct): [C44H82NO8P+H] 1+) |  |  | 290.1 |
| CCCCCC/C=C\CCCCCCCC(=O)O[C@@H](CO)COC(=O)CCCCCCCCCCCCCCC [DG 16:0_16:1_0:0] (ion (formula + adduct): [C35H66O5+NH4] 1+) | 254.9 | 257 | 254.9 |
| CCCCC/C=C\CCCCCCCC(=O)OC[C@H](COP(=O)([O-])OCC[N+](C)(C)C)OC(=O)CCCCCCC/C=C\CCCCCC [PC 15:1_16:1@] (ion (formula + adduct): [C39H74NO8P+H] 1+) |  |  | 272.8 |
| CCCCCCCCCCCCCCCCCCCC(=O)OC[C@@H](O)COP(=O)(O)OCCN [LPE 20:0] (ion (formula + adduct): [C25H52NO7P+H] 1+) |  |  | 229.2 |
| CC/C=C\C/C=C\C/C=C\C/C=C\C/C=C\C/C=C\CCC(=O)O[C@H](COC(=O)CCCCCCCCCCCCCC)COP(=O)([O-])OCC[N+](C)(C)C [PC 15:0@_22:6] (ion (formula + adduct): [C45H78NO8P+H] 1+) |  | 288.2 |  |

The next lines start with the values.

| TIMS collisional cross section (sample type: Liver) [Å²] | TIMS collisional cross section (sample type: plasma) [Å²] | TIMS collisional cross section (sample type: HeLa) [Å²] | Compound |
| --- | --- | --- | --- |
| 312.8 | 314.1 |  | CC/C=C\C/C=C\C/C=C\CCCCCCCC(=O)OC[C@@H](COC(=O)CCCCCCC/C=C\CCCCCC)OC(=O)CCCCCCC/C=C\C/C=C\CCCCC [TG 16:1_18:2_18:3] (ion (formula + adduct): [C55H94O6+NH4] 1+) |
|  | 307.4 |  | CCCCC/C=C\C/C=C\C/C=C\C/C=C\CCCC(=O)OC[C@@H](COC(=O)CCCCCCCCCCC)OC(=O)CCCCCCCCCCCCCCC [TG 12:0_16:0_20:4] (ion (formula + adduct): [C51H90O6+NH4] 1+) |
| 324.7 |  |  | CCCCC/C=C\C/C=C\C/C=C\C/C=C\CCCC(=O)OC[C@@H](COC(=O)CCCCCCC/C=C\CCCCCC)OC(=O)CCCCCCCCCCCCCCCCC [TG 16:1_18:0_20:4] (ion (formula + adduct): [C57H100O6+NH4] 1+) |
| 317.5 | 318.3 |  | CCCCC/C=C\C/C=C\CCCCCCCC(=O)OC[C@@H](COC(=O)CCCCCCC/C=C\CCCCCCC)OC(=O)CCCCCCC/C=C\C/C=C\CCCCC [TG 17:1_18:2_18:2] (ion (formula + adduct): [C56H98O6+NH4] 1+) |
|  |  | 338.1 | CC/C=C\C/C=C\C/C=C\C/C=C\C/C=C\C/C=C\CCC(=O)OC[C@@H](COC(=O)CCC/C=C\C/C=C\C/C=C\C/C=C\CCCCC)OC(=O)CCCCC/C=C\C/C=C\C/C=C\C/C=C\C/C=C\CC [TG 20:4_22:5_22:6] (ion (formula + adduct): [C67H100O6+NH4] 1+) |
| 308.4 | 308.1 ± 0.22 | 308.5 | CCCCCCCCCCCCCCCC(=O)OC[C@@H](COC(=O)CCCCCCCCCCCCC)OC(=O)CCCCCCCCCCCCCCC [TG 14:0_16:0_16:0] (ion (formula + adduct): [C49H94O6+NH4] 1+) |
| 327 |  | 326 | CCCCCC/C=C\CCCCCCCC(=O)OC[C@H](COC(=O)CCCCCCCCC/C=C\CCCCCCCC)OC(=O)CCCCCCC/C=C\CCCCCCCC [TG 16:1_18:1_20:1] (ion (formula + adduct): [C57H104O6+NH4] 1+) |
|  |  | 311.7 | CCCCCC/C=C\CCCCCCCC(=O)OC[C@@H](COC(=O)CCCCCCCCCCCCCCC)OC(=O)CCCCCCCCCCCCCCC [TG 16:0_16:0_16:1] (ion (formula + adduct): [C51H96O6+NH4] 1+) |
| 326.4 | 326.25 ± 0.49 | 325.1 | CCCCC/C=C\C/C=C\CCCCCCCC(=O)OC[C@@H](COC(=O)CCCCCCCCCCCCCCCCC)OC(=O)CCCCCCC/C=C\CCCCCCCC [TG 18:0_18:1_18:2] (ion (formula + adduct): [C57H104O6+NH4] 1+) |
|  | 291.9 |  | CCCC/C=C\CCCCCCCC(=O)O[C@H](COC(=O)CCCCCCCCCCC)COC(=O)CCCCCCCCCCCCCCC [TG 12:0_14:1_16:0] (ion (formula + adduct): [C45H84O6+NH4] 1+) |
|  | 278.9 |  | CCCC/C=C\CCCCCCCC(=O)OC[C@@H](COC(=O)CCCCCCCCCCC)OC(=O)CCCCCCCCCCC [TG 12:0_12:0_14:1] (ion (formula + adduct): [C41H76O6+NH4] 1+) |
| 322.4 | 322.7 | 322.1 | CCCCCCC/C=C\CCCCCCCC(=O)O[C@@H](COC(=O)CCCCCCC/C=C\CCCCCCCC)COC(=O)CCCCCCCCCCCCCCCC [TG 17:0_17:1_18:1] (ion (formula + adduct): [C55H102O6+NH4] 1+) |
|  |  | 279.1 | CCCCC/C=C\C/C=C\C/C=C\CCCCCCC(=O)OC[C@H](COP(=O)(O)OCCN)OC(=O)CCCCCCCCCCCCCCC [PE 20:3@_16:0] (ion (formula + adduct): [C41H76NO8P+H] 1+) |
| 331.2 | 332 | 330.7 | CCCCCCCC/C=C\CCCCCCCCCC(=O)OC[C@@H](COC(=O)CCCCCCCCCCCCCCCC)OC(=O)CCCCCCC/C=C\CCCCCCCC [TG 17:0_18:1_20:1] (ion (formula + adduct): [C58H108O6+NH4] 1+) |
